Results taken from patent publication US8426406B2, “Glucocorticoid receptor agonist comprising 2,2,4-trimethyl-6-phenyl-1,2-dihydroquinoline derivatives having substituted oxy group” (Santen Pharmaceutical Co., Ltd., priority 2008, dated 2013).

Columns and labels:
[1] = test system: IL-6 production induced by lipopolysaccharide (LPS) in human corneal epithelial cells; assay: Evaluation test for GR agonist activity: inhibition of LPS-induced IL-6 production in human corneal epithelial cells (HCE-T); type: cell-based; conditions: Corneal epithelial cell, 10 μL of 100 μM test compound solution per well, 4 hours incubation, efficacy relative to DEX
In short: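 SV40-immortalized HCE-T cells were treated with test compound (100 μM solution, stock before dilution into well) plus LPS (1 μg/mL solution, likewise pre-dilution) for 4 hours in 10% FBS-DMEM/F12. IL-6 in supernatants was measured by HTRF. Inhibition was calculated relative to LPS-plus-DMSO and no-LPS controls, and efficacy was expressed as % of DEX inhibition.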

[2] = test system: choroidal neovascularization (CNV) model in rats; assay: Evaluation test for inhibitory effect of choroidal neovascularization (laser induced CNV model in rats); type: in vivo; conditions: Brown Norway rats, 1% (w/v) suspension eye drops four times a day or 20 mg/mL subconjunctival injection (route not given), vs vehicle, mean of 7-8 eyes in 4 rats
Description: The choroidal neovascularization (CNV) model in rats is known as one of the popular methods for evaluating the CNV inhibitory effect of drugs. This method is reported in Graefe's Arch. Cli. Exp. Ophthalmol., 235, 313-319 (1997). According to this method, the CNV examinations were performed to evaluate the CNV inhibitory effect of test compounds by comparing the incidence rates of CNV in vehicle group (control group) with test compound-treated groups.
For eye drop administration, a 1% (w/v) test compound suspension was prepared by adding 0.5% polysorbate 80/saline to the test compound. For subconjunctival injection, a 20 mg/mL test compound suspension was prepared by adding 0.5% hydrogenated castor oil/saline to the test compound.
1) Brown Norway male rats (7-8 weeks, 140-240 g) were anesthetized with intramuscular injection (1 mL/kg) of the mixed solution (5% ketamine HCl: 2% xylazine HCl=7:1).
2) After mydriasis using tropicamide phenylephrine hydrochloride eye drops (trade name Mydrin P), laser photocoagulation of bruch's membrane in rats was performed with krypton laser photocoagulation machine. Laser irradiation was performed at 8-9 points per eye avoiding thick retinal blood vessels in ocular fundus and focusing on the depth of retina. The conditions were 100 μm spot size, 100 mW power, 0.1 second duration.
3) After laser photocoagulation, photographs of ocular fundus were taken and the laser photocoagulation (laser irradiation) points were confirmed.
1) In case of eye drops administration, a test compound suspension was administrated four times a day from laser irradiation day (the 1st day) to the 8th day. In case of subconjunctival injection, a 50 μL test compound suspension was injected into conjunctivae just after laser irradiation.
2) In vehicle group (control group), 0.5% polysorbate 80/saline or 0.5% hydrogenated castor oil/saline was used instead of a test compound suspension. And the test was performed according to the method 1).
1) 7 days after laser irradiation, 0.1 mL of 10% fluorescein was injected into rat tail vein and fluorescein angiography was performed.
2) When the fluorescent leakage was not detected in the fluorescent angiography, the spot was judged to be a negative spot. When the fluorescent leakage was detected, the spot was judged to be a positive spot. When the fluorescent leakage was detected as a little leakage, two spots were counted as one positive spot.
3) The neovascular incidence rate was calculated according to the equation 1. According to the equation 2, the ratio of neovascular incidence rate in test compound group to vehicle group was calculated. Neovascular incidence rate(%)=(Positive spots/all spots)×100 (Equation 1) Angiogenic inhibition ratio in test compound group(%)=(1−Ax/Ao)×100 (Equation 2)
Ao: Neovascular incidence rate in vehicle group (control group)
Ax: Neovascular incidence rate in test compound group

CCCS(=O)(=O)Oc1ccc(-c2ccc3c(c2CNc2ccccc2OC)C(C)=CC(C)(C)N3)c(OC)c1 [Compound 4-18, 5-(2-Methoxyphenylaminomethyl)-6-(2-methoxy-4-propylsulfonyloxyphenyl)-2,2,4-trimethyl-1,2-dihydroquinoline]
Emax [1]: 89%
Angiogenic inhibition ratio (%) [2]: 35%

COc1cc(OC(=O)c2ccco2)ccc1-c1ccc2c(c1COc1cc(F)ccc1C)C(C)=CC(C)(C)N2 [Compound 1-13, 5-(5-Fluoro-2-methylphenoxymethyl)-6-[4-(furan-2-ylcarbonyloxy)-2-methoxyphenyl]-2,2,4-trimethyl-1,2-dihydroquinoline]
Emax [1]: 94%
Angiogenic inhibition ratio (%) [2]: 38%

COc1cc(OC(=O)c2ccsc2)ccc1-c1ccc2c(c1COc1cc(F)ccc1C)C(C)=CC(C)(C)N2 [Compound 1-12, 5-(5-Fluoro-2-methylphenoxymethyl)-6-[2-methoxy-4-(thiophen-3-ylcarbonyloxy)phenyl]-2,2,4-trimethyl-1,2-dihydroquinoline]
Emax [1]: 85%
Angiogenic inhibition ratio (%) [2]: 37%

COc1cc(OC(=O)c2cccnc2)ccc1-c1ccc2c(c1COc1cc([N+](=O)[O-])ccc1C)C(C)=CC(C)(C)N2 [Compound 1-72, 6-[2-Methoxy-4-(pyridin-3-ylcarbonyloxy)phenyl]-5-(2-methyl-5-nitrophenoxymethyl)-2,2,4-trimethyl-1,2-dihydroquinoline]
Emax [1]: 82%
Angiogenic inhibition ratio (%) [2]: 28%
